# Experimental data from patent US10829483B2, “Thiophene, manufacturing method thereof, and pharmaceutical application of same” (CSTONE PHARMACEUTICAL (SUZHOU) CO., LTD., priority 2016, dated 2020).
# Molecular target: URAT-1 (uric acid transporter) (Homo sapiens (Human), UniProt Q96S37)
# Experiment: Inhibition of 14C uric acid transport by HEK293 cell line stably transfected with the URAT-1 gene
# Assay type: cell-based
# Settings: URAT-1 (HEK293) cells; 14C-labelled uric acid 50 um, 10 min at 37° C.; read-out: IC50 (inhibition against URAT-1)
# Procedure: Determination of the IC50 value of the inhibitory activity of the compound against uric acid reabsorption by the HEK293 cell line stably transfected with the URAT-1 (uric acid transporter) gene.
# URAT-1 (HEK293) cell line: the HEK293 cell line stably transfected with the URAT-1 gene
# cell culture medium: DMEM culture medium added 10% fetal bovine serum (FBS), 1% sodium pyruvate and […] G418.
# Uric acid solution labeled by ^14C.
# 1) the supernatant of cell culture was aspirated, and cells was washed with 10 mL PBS.
# 2) preheated trypsin was added into the cell culture flask, and the cell culture flask was rotated to make trypsin covering onto the bottom of cell culture flask equably.
# 3) the cells were suspended with 10-15 mL of culture medium in each T150 flask, took 0.1 mL of cell suspension and diluted it with two volumes of trypan blue solution to count the cells.
# 4) cells were diluted to 2.5×10^5/mL with the culture medium, and the diluted cells were added into a rat tail collagen-coated 24-well plate (800 uL/well, 2×10^5 cells/well). The plate was incubated overnight at 37° C. in a 5% CO2 incubator.
# 1) cells were seeded into 24-well plate, and supernatant was discarded after 16-18 h. The cells were washed twice using 600 ul HBSS buffer.
# 2) HBSS buffer was removed and 180 ul of HBSS buffer was added into each well again.
# 1) compounds were dissolved into 100% DMSO, and diluted into 6 concentration points by 3-fold dilution, or into 2 concentration points by 10-fold dilution, and the highest starting concentration was 50 mM.
# 2) 5 ul DMSO solution in step 1) was transferred into 120 ul of HBSS buffer to make a 25-fold dilution.
# 3) 10 ul diluted solution in step 2) was added into 24-well plate, and the plate was incubated for 15 min at 37° C. in a 5% CO2 incubator. The final concentration of DMSO is 0.2%. The control well contained 0.2% DMSO without compound.
# ^14C-labelled uric acid was diluted and added into plate, and the final concentration is 50 um. The plate was incubated for 10 min at 37° C. in a 5% CO2 incubator. After supernatant was discarded, cells were washed with HBSS buffer twice. Cells was lysed with 0.1M NaOH. And then cell lysis solution was collected into liquid scintillation tube and added with liquid scintillation solution. The signal was read by liquid scintillation counter Tri-Carb. e) data analysis URAT-1 inhibition by the treatment of the compounds was analyzed by calculating the percentage of inhibition. Non-linear fitting analysis of percent inhibition (inh %) data using GraphPad Prism software to generate the IC50 value.
# URAT-1 (uric acid transporter), sequence (Q96S37 whole entry): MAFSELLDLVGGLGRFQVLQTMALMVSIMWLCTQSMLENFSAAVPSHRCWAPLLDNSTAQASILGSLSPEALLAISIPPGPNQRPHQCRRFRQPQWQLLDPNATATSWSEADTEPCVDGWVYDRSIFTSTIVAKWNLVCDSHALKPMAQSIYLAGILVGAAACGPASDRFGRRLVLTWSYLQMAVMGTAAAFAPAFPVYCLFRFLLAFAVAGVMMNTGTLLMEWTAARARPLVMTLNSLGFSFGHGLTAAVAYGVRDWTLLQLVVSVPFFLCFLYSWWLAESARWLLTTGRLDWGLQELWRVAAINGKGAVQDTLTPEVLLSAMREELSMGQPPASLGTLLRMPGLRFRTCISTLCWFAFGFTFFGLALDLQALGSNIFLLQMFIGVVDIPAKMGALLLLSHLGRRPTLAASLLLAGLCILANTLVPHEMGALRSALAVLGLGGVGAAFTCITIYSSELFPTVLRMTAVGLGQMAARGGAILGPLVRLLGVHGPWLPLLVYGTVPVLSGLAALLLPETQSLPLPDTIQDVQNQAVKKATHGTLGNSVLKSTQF
row,Compound,IC50 [µM]
1,O=C(O)C1(Sc2nnc(Br)n2-c2sc(C3CC3)c3c2CCC3)CCCC1 [WX060],< 2
2,COc1ccc(-c2sc(-n3cnnc3SCC(=O)O)c3c2CCC3)cc1 [WX049],> 20
3,CC(C)(Sc1nnc(Br)n1-c1sc(-c2ccc(C(F)(F)F)cc2)c2c1CCCC2)C(=O)O [WX010],2 to 20
4,CNc1c(Br)cc(-c2sc(-n3cnnc3SC(C)(C)C(=O)O)c3c2CCCC3)cc1Br [WX024],2 to 20
5,O=C(O)C1(Sc2nnc(Br)n2-c2sc(C3CC3)c3c2CCCC3)CCCC1 [WX030],< 2
6,O=C(O)CSc1nncn1-c1sc(-c2cccc(F)c2)c2c1CCCC2 [WX020],> 20
7,CCOC(=O)C(C)(C)Sc1nnc(Br)n1-c1sc(C(=O)Nc2ccc(F)c(F)c2)c2c1CCCC2 [WX100],> 20
8,O=C(O)C1(Sc2nnc(Br)n2-c2cc(Cl)c(C3CC3)s2)CCCC1 [WX069],< 2
9,CCOC(=O)CSc1nncn1-c1cc(Br)c(C2CC2)s1 [WX072],> 20
10,CC(C)(Sc1nnc(Br)n1-c1sc(C2CC2)c2c1CCCC2)C(=O)O [WX027],< 2
11,CC1(C)Cc2c(C3CC3)sc(-n3c(Br)nnc3SC(C)(C)C(=O)O)c2C1 [WX065],< 2
12,O=C(O)CSc1nnc(Br)n1-c1sc(-c2ccc(Cl)cc2)c2c1CCC2 [WX040],> 20
13,O=C(O)CSc1nnc(Br)n1-c1sc(-c2ccc(Cl)c(Cl)c2)c2c1CCCC2 [WX019],2 to 20
14,COc1ccc(-c2sc(-n3c(Br)nnc3SCC(=O)O)cc2C)cc1 [WX083],> 20

# More lines, now with the values ahead:
row,IC50 [µM],Compound
1,2 to 20,O=C(O)C(Sc1nnc(Br)n1-c1sc(C2CC2)c2c1CCC2)c1ccccc1 (centres unmarked) [WX064]
2,2 to 20,O=C(O)CSc1nnc(Br)n1-c1sc(-c2ccc(F)c(F)c2)c2c1CCCC2 [WX008]
3,< 2,CC(C)(Sc1nnc(Br)n1-c1sc(C2CC2)c2c1CCC2)C(=O)O [WX062]
4,> 20,Cc1cc(-n2cnnc2SCC(=O)O)sc1-c1ccc(C(F)(F)F)cc1 [WX097]
5,< 2,CC(C)(Sc1nnc(Br)n1-c1sc(-c2ccccc2)c2c1CCCC2)C(=O)O [WX005]
6,> 20,CCOC(=O)C(C)Sc1nncn1-c1cc(Br)c(C2CC2)s1 (centres unmarked) [WX074]
7,> 20,COC(=O)C(C)(C)Sc1nncn1-c1cc(Br)c(-c2ccccc2)s1 [WX077]
8,> 20,Cc1cc(-n2c(Br)nnc2SCC(=O)O)sc1-c1ccc(C(C)(C)C)cc1 [WX085]
9,< 2,Cc1cc(-n2c(Br)nnc2SC(C)C(=O)O)sc1C1CC1 (centres unmarked) [WX094]
